Legend:
[1] = tested on: E-selectin; test: TNF-α induced E-selectin mRNA in HAEC (Northern blot); assay type: cell-based, human
Method: (§1) Cell culture and treatment of HAEC: Human aortic endothelial cells (HAEC; Cambrex Bio Science Walkersville, Inc., Walkersville, Md.) are cultured in M199 supplemented with 8% FBS, 100 μg/ml heparin, 10 ng/ml endothelial growth factor, 100 μg/ml hypothalamus extract, 2 mM L-glutamine, 1% non-essential amino acids, 100 units/ml penicillin and 100 μg/ml streptomycin. HAEC are subcultured on gelatin pre-coated: 96-well tissue culture plates (Corning Incorporated; Corning, N.Y.) for viability assays and ELISA; 100-mm tissue culture dishes (BD Falcon; Franklin Lakes, N.J.) for Northern blot analyses, Western blot analyses and EMSA; 35-mm tissue culture dishes (Corning) for adhesion assays and on 24-well tissue culture plates for luciferase promoter assays (BD Falcon). All experiments are performed with confluent HAEC monolayers. Unless noted otherwise, HAEC are treated with 25 ng/ml TNF-α, in the absence or presence of C-10 or 0.25% DMSO (carrier control for C-10), for 2-24 hrs. The concentration of DMSO is held constant at 0.25% (unless indicated otherwise) for all of the C-10 conditions.
HAEC are washed with PBS and total RNA extracted using a commercial kit (RNeasy Mini Kit; Qiagen Inc.; Valencia, Calif.). 12 μg of total RNA per lane is resolved on 1% denaturing agarose gels containing 0.66M formaldehyde. […]

[2] = tested on: E-selectin; test: ELISA of TNF-α induced E-selectin protein on HAEC; assay type: cell-based, human
Method: as §1
HAEC are washed with cold HBSS+, fixed in 1% formaldehyde at 4° C. for 20 min., washed with cold HBSS+, and incubated in cold M199 containing 8% FBS. Unless otherwise noted, from this point on all antibody dilutions and washes are carried out with M199 containing 8% FBS. Murine mAbs (primary mAbs) to ECAMs are added (10 μg/ml) and the HAEC incubated at 4° C. for 20 min. Following the incubation, the wells are washed and a peroxidase conjugated polyclonal (secondary) antibody to mouse IgG is added (diluted 1:50). After a 20 min. incubation at 4° C., the wells are washed and treated with OPD dissolved in phosphate citrate buffer containing sodium perborate. Following a 10 min. incubation at room temperature, the absorbance of the fluid in each well is determined at 450 nm using a micro-well plate spectrophotometer (Molecular Devices; Sunnyvale, Calif.). In every experiment, each condition is run in triplicate wells.

SMILES: Cn1c(-c2ccccc2)cnc1S [5-Phenylmethimazole]
- effect on TNF-α induced E-selectin mRNA expression ([1]; 2 hr. TNF-α): marginal effect
- effect on TNF-α induced E-selectin mRNA ([1]; 24 hr. TNF-α): reduced, in a dose dependent manner
- effect on TNF-α induced protein expression of E-selectin ([2]; 4 hr. TNF-α): little to no effect
- concentration at which significant reduction of TNF-α induced E-selectin protein expression is observed ([2]; 24 hr. TNF-α): ≥ 0.05 mM
- effect on TNF-α induced protein expression of E-selectin ([2]; 24 hr. TNF-α): significantly reduces

Source: patent US20050209295A1, “Methimazole derivatives and tautomeric cyclic thiones to inhibit cell adhesion” (priority 2004, published 2005)
